The values that follow come from patent US20220213178A1, “Enhanced Transfection” (The University of Nottingham, priority 2019, published 2022).

Molecules are shown by their SMILES.

What all share (assay type): cell-based
Assay [1] relates to LCL lymphoblastoid human B cells. Briefly: GET transfection of pCMV-Gluc pDNA into LCL cells (FIG. 3). Particulars: 20,000 cells, 24 hours post-transfection of 1 μs pCMV-Gluc pDNA with GET; short exposures of TPA. The procedure: Experiment on 20,000 LCL lymphoblastoid human B cells, measured at 24 hours post-transfection of […] pCMV-Gluc pDNA with GET. T=TPA(μM), S=SAHA (μM). TPA is shown to have the most effect on transfection in LCL cells, and it is enhanced by SAHA. There is effectively no transfection without these modulators.

Assay [2] relates to T2 hybrid human T/B cells. Kind of assay: GET transfection of pCMV-Gluc pDNA into T2 cells (FIG. 1). Particulars: 20,000 cells, 24 hours post-transfection of 1 μg pCMV-Gluc pDNA with GET. How it is done: Experiment on 20,000 T2 hybrid human T/B cells, measured at 24 hours post-transfection of 1 μg pCMV-Gluc pDNA with GET. T=TPA(μM), S=SAHA (μM). TPA is shown as the major effect on transfection efficiency in T2 cells.

For assay [3], the system named is RAW264.7 mouse macrophage cells. Kind of assay: GET transfection of pCMV-Gluc pDNA into RAW264.7 cells (FIG. 2). Conditions: 20,000 cells, 24 hours post-transfection of 1 μg pCMV-Gluc pDNA with GET. How it is done: Experiment on 20,000 RAW264.7 mouse macrophage cells, measured at 24 hours post-transfection of 1 μg pCMV-Gluc pDNA with GET. T=TPA(μM), S=SAHA (μM).

Take `CCCCCCCCCCCCCC(=O)O[C@@H]1[C@@H](C)[C@@]2(O)[C@@H](C=C(CO)C[C@]3(O)C(=O)C(C)=C[C@@H]23)[C@@H]2C(C)(C)[C@]12OC(C)=O` [TPA, phorbol 12-myristate 13-acetate]: the “transfection of LCL cells (Gluc)” value in assay [1] is listed as “significantly enhances transfection”. In addition, the “transfection of T2 cells (Gluc)” value in assay [2] is recorded as “significantly enhances transfection”.

For the compound `O=C(CCCCCCC(=O)Nc1ccccc1)NO` [SAHA, suberoylanilide hydroxamic acid], in assay [1], the “transfection of LCL cells (Gluc)” value is “significantly enhances transfection”. The “transfection of RAW264.7 cells (Gluc)” value in assay [3] was “significantly enhances transfection”.
